# From the supplement of paper PMC10307832
# Experiments:
# Experiment in all cases: relative viability (nuclei count vs DMSO), 5 days (fraction); higher = more cells survive
# Sunitinib + Lapatinib = compound: CCN(CC)CCNC(=O)c1c(C)[nH]c(/C=C2\C(=O)Nc3ccc(F)cc32)c1C [Sunitinib] + CS(=O)(=O)CCNCc1ccc(-c2ccc3ncnc(Nc4ccc(OCc5cccc(F)c5)c(Cl)c4)c3c2)o1 [Lapatinib] (partner 2 µM)
# Procedure, shortened: (§1)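 Lung cancer cell lines were seeded in 1536-well plates and dosed by pin tool the next day, with either a single drug or a fixed anchor-drug dose combined with five library-drug doses (not always all listed) spaced in √10 steps. Five days later, one step fixed the cells and stained their nuclei (final 0.05% Triton X-100, 1% formaldehyde, 1 ug/ml Hoechst), and nuclei were counted on 4× images. Relative viability is the nuclei count in treated wells divided by the count in vehicle wells, and each value is the median of duplicate plates.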
# Sunitinib + Crizotinib = compound: CCN(CC)CCNC(=O)c1c(C)[nH]c(/C=C2\C(=O)Nc3ccc(F)cc32)c1C [Sunitinib] + C[C@@H](Oc1cc(-c2cnn(C3CCNCC3)c2)cnc1N)c1c(Cl)ccc(F)c1Cl [Crizotinib] (partner 1 µM)
# Procedure, shortened: as §1
# Sunitinib + Tozasertib = compound: CCN(CC)CCNC(=O)c1c(C)[nH]c(/C=C2\C(=O)Nc3ccc(F)cc32)c1C [Sunitinib] + Cc1cc(Nc2cc(N3CCN(C)CC3)nc(Sc3ccc(NC(=O)C4CC4)cc3)n2)n[nH]1 [Tozasertib] (partner 0.1 µM)
# Procedure, shortened: as §1
# Sunitinib + Decitabine = compound: CCN(CC)CCNC(=O)c1c(C)[nH]c(/C=C2\C(=O)Nc3ccc(F)cc32)c1C [Sunitinib] + Nc1ncn([C@H]2C[C@H](O)[C@@H](CO)O2)c(=O)n1 [Decitabine] (partner 2 µM)
# Procedure, shortened: as §1
Cell Line,relative viability (Sunitinib + Lapatinib; first compound 0.02 µM),relative viability (Sunitinib + Lapatinib; first compound 0.06325 µM),relative viability (Sunitinib + Lapatinib; first compound 0.2 µM),relative viability (Sunitinib + Lapatinib; first compound 0.6325 µM),relative viability (Sunitinib + Lapatinib; first compound 2 µM),relative viability (Sunitinib + Crizotinib; first compound 0.02 µM),relative viability (Sunitinib + Crizotinib; first compound 0.06325 µM),relative viability (Sunitinib + Crizotinib; first compound 0.2 µM),relative viability (Sunitinib + Crizotinib; first compound 0.6325 µM),relative viability (Sunitinib + Crizotinib; first compound 2 µM),relative viability (Sunitinib + Tozasertib; first compound 0.02 µM),relative viability (Sunitinib + Tozasertib; first compound 0.06325 µM),relative viability (Sunitinib + Tozasertib; first compound 0.2 µM),relative viability (Sunitinib + Tozasertib; first compound 0.6325 µM),relative viability (Sunitinib + Tozasertib; first compound 2 µM),relative viability (Sunitinib + Decitabine; first compound 0.02 µM),relative viability (Sunitinib + Decitabine; first compound 0.06325 µM),relative viability (Sunitinib + Decitabine; first compound 0.2 µM),relative viability (Sunitinib + Decitabine; first compound 0.6325 µM),relative viability (Sunitinib + Decitabine; first compound 2 µM)
NCI-H322M,0.594,0.649,0.583,0.655,0.633,0.845,0.891,0.951,0.891,1.08,0.452,0.464,0.546,0.547,0.42,0.664,0.72,0.654,0.798,0.696
NCI-H358,0.421,0.6,0.457,0.514,0.377,0.722,0.652,0.562,0.642,0.508,0.114,0.0928,0.123,0.103,0.109,0.236,0.217,0.22,0.197,0.192
NCI-H460,0.85,–,1.3,1.08,0.927,0.874,0.945,1.2,1.17,0.638,0.427,0.206,0.421,0.292,0.104,0.457,0.54,0.566,0.527,0.563
NCI-H520,0.786,–,0.964,0.916,–,0.83,0.699,0.856,0.63,0.601,0.44,0.384,0.435,0.375,0.421,0.487,0.499,0.55,0.577,0.537
NCI-H596,0.987,1.14,1.22,1.19,1.08,0.935,0.957,1.01,–,0.81,1.01,0.944,0.985,0.912,0.705,0.895,0.902,1.16,1.01,0.962
NCI-H647,0.939,1.26,1.19,1.13,0.913,0.988,0.998,1.19,1.15,0.941,0.344,0.294,0.262,0.345,0.309,0.329,0.47,0.512,0.537,0.41
NCI-H650,1.09,1.33,0.807,0.925,0.964,0.687,0.656,0.738,0.717,0.78,0.697,0.831,0.771,0.801,0.745,0.341,0.291,0.321,0.325,0.321
NCI-H661,0.433,0.453,0.527,0.582,0.448,1.09,0.987,1,0.978,1.17,0.357,0.379,0.356,0.363,0.401,0.509,0.578,0.544,0.56,0.597
NCI-H727,0.88,0.887,1.36,0.937,0.781,0.724,0.832,0.808,0.926,0.738,0.603,0.686,0.565,0.658,0.529,0.837,0.836,0.857,0.754,0.889
NCI-H838,0.885,1.38,1.22,1.09,0.894,0.768,0.863,0.916,0.884,0.64,0.301,0.311,0.314,0.266,0.246,0.447,0.489,0.476,0.485,0.448
NCI-H1355,1.01,1.04,1.12,1.07,1.06,0.982,1.08,1.25,1.1,1.12,0.529,0.561,0.601,0.594,0.406,0.369,0.381,0.375,0.365,0.345
NCI-H1437,0.789,1.1,0.928,0.793,1.03,0.979,0.959,1.09,0.909,0.899,0.391,0.302,0.408,0.39,0.41,0.566,0.606,0.624,0.514,0.628
NCI-H1650,0.559,–,0.769,0.739,0.737,0.821,0.903,1.14,0.991,0.829,0.323,0.416,0.382,0.321,0.245,0.45,0.379,0.315,0.475,0.416
NCI-H1651,0.766,1.21,1.06,0.893,0.923,0.866,0.843,0.89,0.921,0.917,0.618,0.687,0.787,0.584,0.548,0.552,0.633,0.591,0.557,0.523
NCI-H1666,–,0.9,0.584,0.719,0.671,1.06,0.978,1.08,1.19,1.07,0.676,0.685,0.719,0.655,0.71,0.905,0.884,0.738,0.698,0.735
NCI-H1734,0.968,1.16,1.35,1.18,1.05,0.645,0.738,0.866,0.746,0.724,0.265,0.262,0.25,0.325,0.247,0.528,0.495,0.514,0.477,0.497
NCI-H1755,1.04,1.08,1.09,1.07,1.02,0.753,0.874,0.89,0.904,0.857,0.561,0.529,0.752,0.593,0.569,0.69,–,0.663,0.692,0.76
NCI-H1915,0.958,1.03,1.04,0.998,1.02,–,0.911,0.998,0.911,0.966,0.415,0.418,0.46,0.453,0.465,0.266,0.278,0.264,0.26,0.271
NCI-H1944,0.648,0.932,0.997,0.849,0.964,–,1.06,1.34,1.24,1.18,0.229,0.283,0.283,0.255,0.258,0.477,0.415,0.466,0.42,0.449
NCI-H1975,0.815,1.1,1.14,0.981,0.763,0.885,0.96,1.05,0.954,–,0.705,0.67,0.717,0.318,0.186,0.369,0.408,0.405,0.427,0.391
NCI-H1993,0.835,0.889,0.834,0.836,0.849,0.846,0.741,0.872,0.966,0.74,0.527,0.581,0.678,0.605,0.586,0.514,0.632,0.605,0.577,0.61
NCI-H2009,0.929,1.34,0.995,–,1.18,1.01,1.03,1.16,1.13,1.04,0.695,0.747,0.858,0.78,0.716,0.349,0.364,0.371,0.424,0.373
NCI-H2023,0.912,1.09,0.998,0.814,0.91,0.628,0.67,0.792,0.654,0.667,0.304,0.301,0.382,0.239,0.181,0.242,0.225,0.247,0.243,0.217
NCI-H2085,0.759,0.814,0.791,0.856,0.839,0.844,0.817,1.03,0.85,0.798,0.863,0.835,1.02,0.747,0.605,0.527,0.55,0.554,0.595,0.579
NCI-H2087,–,1.11,1.01,1.26,1.03,0.909,1.09,1.15,0.967,0.791,0.253,0.259,0.329,0.284,0.233,0.273,0.274,0.315,0.245,0.264
NCI-H2126,0.677,0.781,0.808,0.809,0.807,1.01,1.04,1.07,1.01,1.01,0.846,0.852,0.963,0.92,0.81,0.589,0.572,0.532,0.592,0.579
NCI-H2170,0.313,0.264,0.271,0.268,0.243,1.11,1.12,1.34,1.14,1.17,0.771,0.961,0.715,0.808,0.838,0.452,0.465,0.484,0.422,0.412
